Experimental findings from patent publication US11578087B2, “Oxaborole esters and uses thereof” (priority 2016, dated 2023) are described below.

Broadly, the IC50 is the concentration at which inhibition is half-maximal.

Assay [1] deals with T. cruzi amastigote (Td Tomato-modified) in Vero cells. Kind of assay: In vitro IC50 measurement of T. cruzi amastigote killing using Td Tomato-modified T. cruzi. Format: cell-based. The note with it: Trypanosoma cruzi, 72 h, fluorescence, read-out: IC50: I Org. amastigote Growth T. cruzi 3 d. As to the method:
Example 254. In Vitro IC50 Measurement of T. cruzi Amastigote Killing Using Td Tomato-Modified T. cruzi
The T. cruzi parasites used in this assay were genetically modified to express Td Tomato fluorescent protein. Vero cells (African green monkey kidney epithelial cells) were harvested from continuous cultures using trypsin and added to the inner 60 wells of 96-well Greiner Bio One plates (plate catalog #655090) at 200 ul/well of […]. Cells were allowed to adhere for 1 h before infection with T. cruzi. T. cruzi for infection were harvested from previously-infected Vero cells, washed, pelleted and resuspended at 5×10^6/mL. 50 uL of parasites were added to each well containing Vero cells. Compounds were prepared from 5 mM stock concentrations in DMSO to final concentrations in wells ranging from 5 uM to 5 nM. Wells were provided for negative controls, lacking compounds. Plates were placed into a 37° C. incubator for 20 min, then a “Day 0” reading was taken on a Synergy H4 plate reader to record initial fluorescence levels, at 544 (excitation) and 612 nm (emission). 96-well plates were placed in Tupperware containers with wet paper towels and incubated at 37° C. incubator for 72 h. After 72 h plates were reread (Day 3 reading) and data analyzed using Excel and/or Graphpad software. Day 0 fluorescence was subtracted from Day 3 to remove input parasite fluorescence. Growth curves are generated and 50% and 90% inhibitory concentrations are determined by nonlinear regression analysis.

The subject of assay [2] is IL3000 T. congolense (drug sensitive) strain. As to the kind of experiment: In vitro Alamar Blue 72 h drug sensitivity assay for T. congolense. Particulars: Trypanosoma congolense, 72 h, bloodstream form, 69 h + 3 h Resazurin, 34° C., read-out: IC50: I Org. Growth T. congolense 3 d. The format is cell-based, Trypanosoma congolense. As to the method: Example 252. In Vitro Alamar Blue 72 h Drug Sensitivity Assay for T. congolense
Compounds were tested in vitro for chemotherapeutic potency against the IL3000 T. congolense (drug sensitive) strain, using the Alamar Blue assay with several modifications. Test compounds were prepared as 10 mg/mL DMSO stocks for each assay run. Compounds were assayed in at least three separate, independent test runs and an 11-point dilution curve was used to determine the IC50 values. Bloodstream form trypanosomes were supported in HMI media containing 20% bovine serum and were incubated with test compounds for 69 h at 34° C. in a humidified atmosphere containing 5% CO2. Thereafter, 10 μL of Resazurin dye (12.5 mg in 100 mL of phosphate buffered saline, Sigma-Aldrich, Buchs, Switzerland) were added for an additional 3 h. Plates were then read using a fluorescent plate reader (Spectramax, Gemini XS, Bucher Biotec, Basel, Switzerland) using an excitation wavelength of 536 nm and an emission wavelength of 588 nm. Data points were averaged to generate sigmoidal dose-response curves and IC50 values were determined using Softmax Pro 5.2 software.
For orientation: The colour change of resazurin is a common sign of viable cells or microbes.

As to `Cc1c(C(=O)N[C@H](C(=O)OCc2ccc(NS(C)(=O)=O)cc2)C(C)C)ccc2c1B(O)OC2` [Example 6-075, 4-(Methylsulfonamido)benzyl (1-hydroxy-7-methyl-1,3-dihydrobenzo[c][1,2]oxaborole-6-carbonyl)-L-valinate], the IC50 is not below 1000 nM in assay [1] and 10 to 5000 nM in assay [2].

Regarding `Cc1c(C(=O)N[C@H](C(=O)OCc2cncc(N3CCOCC3)n2)C(C)C)ccc2c1B(O)OC2` [Example 6-193, (6-morpholinopyrazin-2-yl)methyl (1-hydroxy-7-methyl-1,3-dihydrobenzo[c][1,2]oxaborole-6-carbonyl)-L-valinate], the half-maximal inhibitory concentration (IC50) was not above 20 nM in assay [1] and less than 0.5 nM in assay [2].

Regarding `O=C(N[C@@H](CO)C(=O)OCc1ccccc1)c1ccc2c(c1)B(O)OC2` [Example 6-007, Benzyl (1-hydroxy-1,3-dihydrobenzo[c][1,2]oxaborole-6-carbonyl)-L-serinate], the IC50 in assay [1] was not below 1000 nM; in assay [2], 10 to 5000 nM.

As to `Cc1c(C(=O)N[C@H](C(=O)OCc2cccc(OC(F)(F)F)c2)C(C)C)ccc2c1B(O)OC2` [Example 6-055, 3-Trifluoromethoxybenzyl (1-hydroxy-7-methyl-1,3-dihydrobenzo[c][1,2]oxaborole-6-carbonyl)-L-valinate], the figures for the IC50 in assay [1] and in assay [2] were not above 20 nM and less than 0.5 nM, respectively.

On to `Cc1c(C(=O)N[C@H](C(=O)OCC(F)(F)F)C(C)C)ccc2c1B(O)OC2` [Example 6-151, 2,2,2-Trifluoroethyl (1-hydroxy-7-methyl-1,3-dihydrobenzo[c][1,2]oxaborole-6-carbonyl)-L-valinate], for which the figures for the IC50 in assay [1] and in assay [2] were not above 20 nM and less than 0.5 nM, respectively.

On to `Cc1c(C(=O)N[C@H](C(=O)OC2CCOCC2)C(C)C)ccc2c1B(O)OC2` [Example 6-134, Tetrahydro-2H-pyran-4-yl (1-hydroxy-7-methyl-1,3-dihydrobenzo[c][1,2]oxaborole-6-carbonyl)-L-valinate], for which the results for the IC50 in assay [1] and in assay [2] were not above 20 nM and less than 0.5 nM, respectively.

As to `Cc1c(C(=O)N[C@H](C(=O)OCc2cscn2)C(C)C)ccc2c1B(O)OC2` [Example 6-128, Thiazol-4-ylmethyl (1-hydroxy-7-methyl-1,3-dihydrobenzo[c][1,2]oxaborole-6-carbonyl)-L-valinate], the IC50 in assay [1] was 21 to 999 nM; in assay [2], less than 0.5 nM.

With `Cc1c(C(=O)N[C@H](C(=O)OCc2ccc(F)c(C(F)(F)F)c2)C(C)C)ccc2c1B(O)OC2` [Example 6-049, 4-Fluoro-3-(trifluoromethyl)benzyl (1-hydroxy-7-methyl-1,3-dihydrobenzo[c][1,2]oxaborole-6-carbonyl)-L-valinate], the IC50 was not above 20 nM in assay [1] and less than 0.5 nM in assay [2].

On to `Cc1c(C(=O)N[C@H](C(=O)OC[C@@H]2COC(C)(C)O2)C(C)C)ccc2c1B(O)OC2` [Example 6-145, ((S)-2,2-Dimethyl-1,3-dioxolan-4-yl)methyl (1-hydroxy-7-methyl-1,3-dihydrobenzo[c][1,2]oxaborole-6-carbonyl)-L-valinate], for which the IC50 in assay [1] was not above 20 nM; in assay [2] it was 0.51 to 9.99 nM.

With `Cc1c(C(=O)N[C@H](C(=O)OC(C)(C)C)C(C)C)ccc2c1B(O)OC2` [Example 6-188, Tert-butyl (1-hydroxy-7-methyl-1,3-dihydrobenzo[c][1,2]oxaborole-6-carbonyl)-L-valinate], the IC50 in assay [1] was not below 1000 nM; in assay [2], 10 to 5000 nM.

For `Cc1c(C(=O)N[C@H](C(=O)OCc2ccc(Cl)c(OCCN3CCOCC3)c2)C(C)C)ccc2c1B(O)OC2` [Example 6-167, 4-Chloro-3-(2-morpholinoethoxy)benzyl (1-hydroxy-7-methyl-1,3-dihydrobenzo[c][1,2]oxaborole-6-carbonyl)-L-valinate], the IC50 was not above 20 nM in assay [1] and less than 0.5 nM in assay [2].

On to `CC(C)[C@H](NC(=O)c1ccc2c(c1)B(O)OC2)C(=O)O[C@@H](C)c1ccccc1` [Example 6-023, (S)-1-Phenylethyl (1-hydroxy-1,3-dihydrobenzo[c][1,2]oxaborole-6-carbonyl)-L-valinate], for which the IC50 in assay [1] is not below 1000 nM; in assay [2] it was 10 to 5000 nM.

For the compound `Cc1c(C(=O)N[C@H](C(=O)OCc2cnc(N)nc2)C(C)C)ccc2c1B(O)OC2` [Example 6-225, (2-aminopyrimidin-5-yl)methyl (1-hydroxy-7-methyl-1,3-dihydrobenzo[c][1,2]oxaborole-6-carbonyl)-L-valinate], the IC50 in assay [1] fell in the range of 21 to 999 nM; in assay [2] it was 10 to 5000 nM.

As for `COCC1(COC(=O)[C@@H](NC(=O)c2ccc3c(c2C)B(O)OC3)C(C)C)CCOCC1` [Example 6-152, (4-(Methoxymethyl)tetrahydro-2H-pyran-4-yl)methyl (1-hydroxy-7-methyl-1,3-dihydrobenzo[c][1,2]oxaborole-6-carbonyl)-L-valinate], the IC50 is 21 to 999 nM in assay [1] and less than 0.5 nM in assay [2].

On to `Cc1c(C(=O)N[C@H](C(=O)OCc2ccc(F)c(F)c2)C(C)C)ccc2c1B(O)OC2` [Example 6-166, 3,4-Difluorobenzyl (1-hydroxy-7-methyl-1,3-dihydrobenzo[c][1,2]oxaborole-6-carbonyl)-L-valinate], for which the IC50 was not above 20 nM in assay [1] and less than 0.5 nM in assay [2].

For the compound `Cc1c(C(=O)N[C@H](C(=O)OCCN2CCCC2=O)C(C)C)ccc2c1B(O)OC2` [Example 6-212, 2-(2-oxopyrrolidin-1-yl)ethyl (1-hydroxy-7-methyl-1,3-dihydrobenzo[c][1,2]oxaborole-6-carbonyl)-L-valinate], the IC50 lay in the range of 21 to 999 nM in assay [1] and 10 to 5000 nM in assay [2].

Turning to `Cc1c(C(=O)N[C@H](C(=O)OCC(C)N2CCOCC2)C(C)C)ccc2c1B(O)OC2` (stereo partly drawn) [Example 6-207, 2-morpholinopropyl (1-hydroxy-7-methyl-1,3-dihydrobenzo[c][1,2]oxaborole-6-carbonyl)-L-valinate], the IC50 in assay [1] lay within 21 to 999 nM; in assay [2], 0.51 to 9.99 nM.

As to `Cc1c(C(=O)NC2(C(=O)OCCN3CCOCC3)COC2)ccc2c1B(O)OC2` [Example 6-222, 2-morpholinoethyl 3-(1-hydroxy-7-methyl-1,3-dihydrobenzo[c][1,2]oxaborole-6-carboxamido)oxetane-3-carboxylate], the IC50 in assay [1] was not below 1000 nM; in assay [2] it was 10 to 5000 nM.

As to `Cc1c(C(=O)N[C@H](C(=O)OCc2ncc3ccccc3n2)C(C)C)ccc2c1B(O)OC2` [Example 6-137, Quinazolin-2-ylmethyl (1-hydroxy-7-methyl-1,3-dihydrobenzo[c][1,2]oxaborole-6-carbonyl)-L-valinate], the figures for the IC50 in assay [1] and in assay [2] were not above 20 nM and less than 0.5 nM, respectively.

Turning to `Cc1c(C(=O)N[C@H](C(=O)OCc2cnc3ccccc3n2)C(C)C)ccc2c1B(O)OC2` [Example 6-123, Quinoxalin-2-ylmethyl (1-hydroxy-7-methyl-1,3-dihydrobenzo[c][1,2]oxaborole-6-carbonyl)-L-valinate], the IC50 was not above 20 nM in assay [1] and less than 0.5 nM in assay [2].

As to `Cc1c(C(=O)N[C@H](C(=O)OCc2ccc(F)cc2)C(C)C)ccc2c1B(O)OC2` [Example 6-165, 4-Fluorobenzyl (1-hydroxy-7-methyl-1,3-dihydrobenzo[c][1,2]oxaborole-6-carbonyl)-L-valinate], the figures for the IC50 in assay [1] and in assay [2] were not above 20 nM and less than 0.5 nM, respectively.

In the case of `Cc1c(C(=O)N[C@H](C(=O)OCc2cnccn2)C(C)C)ccc2c1B(O)OC2` [Example 6-186, Pyrazin-2-ylmethyl (1-hydroxy-7-methyl-1,3-dihydrobenzo[c][1,2]oxaborole-6-carbonyl)-L-valinate], the values for the IC50 in assay [1] and in assay [2] were 21 to 999 nM and 0.51 to 9.99 nM, respectively.

In the case of `Cc1c(C(=O)N[C@H](C(=O)OCc2ccc(OCCN3CCCC3)c(Cl)c2)C(C)C)ccc2c1B(O)OC2` [Example 6-243, 3-Chloro-4-(2-(pyrrolidin-1-yl)ethoxy)benzyl (1-hydroxy-7-methyl-1,3-dihydrobenzo[c][1,2]oxaborole-6-carbonyl)-L-valinate], the IC50 in assay [1] lay within 21 to 999 nM; in assay [2], 0.51 to 9.99 nM.

Regarding `Cc1c(C(=O)N[C@H](C(=O)OCc2cccc(N3CCOCC3)n2)C(C)C)ccc2c1B(O)OC2` [Example 6-197, (6-morpholinopyridin-2-yl)methyl (1-hydroxy-7-methyl-1,3-dihydrobenzo[c][1,2]oxaborole-6-carbonyl)-L-valinate], the IC50 in assay [1] is not above 20 nM; in assay [2], less than 0.5 nM.
